Source: patent US20250215030A1, “STAT MODULATORS AND USES THEREOF” (Recludix Pharma, Inc., priority 2022, published 2025)

Columns and labels:
[1] = biological target: T1, Recombinant STAT3 protein (STAT3(G127-I722)) (Homo sapiens, UniProt P40763); assay: STAT3 Fluorescence Polarization (FP) Assay; format: binding; conditions: STAT3(G127-I722) 25 nM, probe 5-FAM-GpYLPQTV-NH2 2 nM, 45-minute incubation
T1 construct: STAT3(G127-I722)
Summary of the method: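 Serially diluted compounds (1% DMSO) were mixed with 2 nM fluorescent phosphotyrosine peptide and 25 nM STAT3 construct G127-I722, pH 7.4, incubated 45 min at room temperature. IC50 values from fitted polarization curves are reported as categories A (≤100 nM), B, C, D (>10 μM).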

[2] = biological target: T2, Recombinant STAT6 protein (STAT6(W123-T658)) (Homo sapiens, UniProt P42226); assay: STAT6 Fluorescence Polarization (FP) Assay; format: binding; conditions: STAT6(W123-T658) 250 nM, probe 5-FAM-ApYKPFQDLI-NH2 2 nM, 45-minute incubation
T2 construct: STAT6(W123-T658)
T2 sequence (P42226 123-658): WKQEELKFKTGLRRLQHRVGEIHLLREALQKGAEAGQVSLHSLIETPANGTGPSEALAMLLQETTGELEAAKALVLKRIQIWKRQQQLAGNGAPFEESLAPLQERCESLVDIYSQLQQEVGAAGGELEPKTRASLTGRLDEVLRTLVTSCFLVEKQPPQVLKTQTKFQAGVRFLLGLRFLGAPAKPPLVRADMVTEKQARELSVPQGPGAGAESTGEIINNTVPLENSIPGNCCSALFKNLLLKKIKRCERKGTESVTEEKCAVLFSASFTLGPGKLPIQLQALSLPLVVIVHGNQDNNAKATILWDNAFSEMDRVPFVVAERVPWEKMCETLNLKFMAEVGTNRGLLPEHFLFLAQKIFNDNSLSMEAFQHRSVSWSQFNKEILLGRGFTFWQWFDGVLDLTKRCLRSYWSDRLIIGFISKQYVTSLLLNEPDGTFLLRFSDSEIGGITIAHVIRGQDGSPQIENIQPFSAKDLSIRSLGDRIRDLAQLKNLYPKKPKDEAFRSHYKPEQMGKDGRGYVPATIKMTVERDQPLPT
Summary of the method: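 Competitive displacement of a fluorescent phosphotyrosine peptide (2 nM) from recombinant STAT6 W123-T658 (250 nM), 45 min at room temperature in 10 mM HEPES pH 7.4, 50 mM NaCl, 2 mM DTT. mP fitted against log compound for IC50, grouped A (≤300 nM) to D (>30 μM).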

T1 sequence (P40763 127-722, species assumed): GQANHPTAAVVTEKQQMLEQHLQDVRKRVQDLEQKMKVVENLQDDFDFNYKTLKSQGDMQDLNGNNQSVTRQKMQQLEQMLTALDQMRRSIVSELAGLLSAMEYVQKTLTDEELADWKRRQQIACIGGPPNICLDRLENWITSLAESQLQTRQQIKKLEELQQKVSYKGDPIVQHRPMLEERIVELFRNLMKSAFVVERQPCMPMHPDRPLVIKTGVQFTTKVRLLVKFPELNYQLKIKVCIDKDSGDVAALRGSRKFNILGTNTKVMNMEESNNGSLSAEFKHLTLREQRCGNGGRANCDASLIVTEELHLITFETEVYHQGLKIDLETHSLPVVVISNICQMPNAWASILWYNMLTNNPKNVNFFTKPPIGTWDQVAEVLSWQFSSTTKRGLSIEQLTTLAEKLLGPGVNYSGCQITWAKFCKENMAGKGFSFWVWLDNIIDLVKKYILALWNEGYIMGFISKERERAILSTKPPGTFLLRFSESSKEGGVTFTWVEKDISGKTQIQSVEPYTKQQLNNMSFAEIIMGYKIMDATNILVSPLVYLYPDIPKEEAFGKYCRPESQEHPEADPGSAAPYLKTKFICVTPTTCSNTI

IC50 [1]	IC50 [2]	SMILES
1 to 10 µM	3 to 30 µM	O=C(N[C@H]1C[C@@H]2C[C@@H]2C[C@H]2CC[C@@H](C(=O)N3CCOc4cc(F)ccc43)N2C1=O)c1cc2cc(C(F)P(=O)(O)O)ccc2s1 (stereo partly drawn) [Example 384, (fluoro(2-(((3S,6S,7aS,8aR,9aR)-3-(7-fluoro-3,4-dihydro-2H-benzo[b][1,4]oxazine-4-carbonyl)-5-oxodecahydro-1H-cyclopropa[d]pyrrolo[1,2-a]azocin-6-yl)carbamoyl)benzo[b]thiophen-5-yl)methyl)phosphonic acid]
1 to 10 µM	3 to 30 µM	O=C(N[C@H]1C[C@@H]2C[C@@H]2C[C@H]2CC[C@@H](C(=O)N3CCOc4cccnc43)N2C1=O)c1cc2cc(C(F)P(=O)(O)O)ccc2s1 (stereo partly drawn) [Example 385, ((2-(((3S,6S,7aS,8aR,9aR)-3-(3,4-dihydro-2H-pyrido[3,2-b][1,4]oxazine-4-carbonyl)-5-oxodecahydro-1H-cyclopropa[d]pyrrolo[1,2-a]azocin-6-yl)carbamoyl)benzo[b]thiophen-5-yl)fluoromethyl)phosphonic acid]
1 to 10 µM	0.3 to 3 µM	O=C(N[C@H]1C[C@@H]2C[C@@H]2C[C@H]2CC[C@@H](C(=O)N3CCOc4ncccc43)N2C1=O)c1cc2cc(C(F)P(=O)(O)O)ccc2s1 (stereo partly drawn) [Example 386, ((2-(((3S,6S,7aS,8aR,9aR)-3-(2,3-dihydro-1H-pyrido[2,3-b][1,4]oxazine-1-carbonyl)-5-oxodecahydro-1H-cyclopropa[d]pyrrolo[1,2-a]azocin-6-yl)carbamoyl)benzo[b]thiophen-5-yl)fluoromethyl)phosphonic acid]
1 to 10 µM	3 to 30 µM	O=C(N[C@H]1C[C@@H]2C[C@@H]2C[C@H]2CC[C@@H](C(=O)N3CCN(C4COC4)c4ccccc43)N2C1=O)c1cc2cc(C(F)P(=O)(O)O)ccc2s1 (stereo partly drawn) [Example 387, (fluoro(2-(((3S,6S,7aS,8aR,9aR)-3-(4-(oxetan-3-yl)-1,2,3,4-tetrahydroquinoxaline-1-carbonyl)-5-oxodecahydro-1H-cyclopropa[d]pyrrolo[1,2-a]azocin-6-yl)carbamoyl)benzo[b]thiophen-5-yl)methyl)phosphonic acid]
1 to 10 µM	3 to 30 µM	O=C(N[C@H]1C[C@@H]2C[C@@H]2C[C@H]2CC[C@@H](C(=O)N3CCC34CCCCC4)N2C1=O)c1cc2cc(C(F)P(=O)(O)O)ccc2s1 (stereo partly drawn) [Example 388, (fluoro(2-(((3S,6S,7aS,8aR,9aR)-5-oxo-3-(1-azaspiro[3.5]nonane-1-carbonyl)decahydro-1H-cyclopropa[d]pyrrolo[1,2-a]azocin-6-yl)carbamoyl)benzo[b]thiophen-5-yl)methyl)phosphonic acid]
1 to 10 µM	3 to 30 µM	O=C(N[C@H]1C[C@@H]2C[C@@H]2C[C@H]2CC[C@@H](C(=O)N3CCC34CCCC4)N2C1=O)c1cc2cc(C(F)P(=O)(O)O)ccc2s1 (stereo partly drawn) [Example 389, (fluoro(2-(((3S,6S,7aS,8aR,9aR)-5-oxo-3-(1-azaspiro[3.4]octane-1-carbonyl)decahydro-1H-cyclopropa[d]pyrrolo[1,2-a]azocin-6-yl)carbamoyl)benzo[b]thiophen-5-yl)methyl)phosphonic acid]
0.1 to 1 µM	3 to 30 µM	O=C(N[C@H]1C[C@@H]2C[C@@H]2C[C@H]2CC[C@@H](C(=O)N3CC(c4ccccc4)C3)N2C1=O)c1cc2cc(C(F)P(=O)(O)O)ccc2s1 (stereo partly drawn) [Example 390, (fluoro(2-(((3S,6S,7aS,8aR,9aR)-5-oxo-3-(3-phenylazetidine-1-carbonyl)decahydro-1H-cyclopropa[d]pyrrolo[1,2-a]azocin-6-yl)carbamoyl)benzo[b]thiophen-5-yl)methyl)phosphonic acid]
< 0.1 µM	> 30 µM	CN(C)c1ccncc1C1CN(C(=O)[C@@H]2CC[C@@H]3C[C@@H]4C[C@@H]4C[C@H](NC(=O)c4cc5cc(CP(=O)(O)O)ccc5s4)C(=O)N32)C1 [Example 393, ((2-(((3S,6S,7aR,8aS,9aR)-3-(3-(4-(dimethylamino)pyridin-3-yl)azetidine-1-carbonyl)-5-oxodecahydro-1H-cyclopropa[d]pyrrolo[1,2-a]azocin-6-yl)carbamoyl)benzo[b]thiophen-5-yl)methyl)phosphonic acid]
0.1 to 1 µM	3 to 30 µM	O=C(N[C@H]1C[C@@H]2C[C@@H]2C[C@H]2CC[C@@H](C(=O)N3CC(c4nocc4Br)C3)N2C1=O)c1cc2cc(C(F)P(=O)(O)O)ccc2s1 (stereo partly drawn) [Example 400, ((2-(((3S,6S,7aS,8aR,9aR)-3-(3-(4-bromoisoxazol-3-yl)azetidine-1-carbonyl)-5-oxodecahydro-1H-cyclopropa[d]pyrrolo[1,2-a]azocin-6-yl)carbamoyl)benzo[b]thiophen-5-yl)fluoromethyl)phosphonic acid]
< 0.1 µM	0.3 to 3 µM	CN(C)c1ccncc1C1CN(C(=O)[C@@H]2CC[C@@H]3C[C@H]4C[C@H]4C[C@H](NC(=O)c4cc5cc(C(F)(F)P(=O)(O)O)ccc5s4)C(=O)N32)C1 [Example 419, ((2-(((3S,6S,7aS,8aR,9aR)-3-(3-(4-(dimethylamino)pyridin-3-yl)azetidine-1-carbonyl)-5-oxodecahydro-1H-cyclopropa[d]pyrrolo[1,2-a]azocin-6-yl)carbamoyl)benzo[b]thiophen-5-yl)difluoromethyl)phosphonic acid]
< 0.1 µM	3 to 30 µM	CCOc1ccncc1C1CN(C(=O)[C@@H]2CC[C@@H]3C[C@H]4C[C@H]4C[C@H](NC(=O)c4cc5cc([C@@H](F)P(=O)(O)O)ccc5s4)C(=O)N32)C1 [Example 420, ((S)-(2-(((3S,6S,7aS,8aR,9aR)-3-(3-(4-ethoxypyridin-3-yl)azetidine-1-carbonyl)-5-oxodecahydro-1H-cyclopropa[d]pyrrolo[1,2-a]azocin-6-yl)carbamoyl)benzo[b]thiophen-5-yl)fluoromethyl)phosphonic acid]
< 0.1 µM	3 to 30 µM	O=C(N[C@H]1C[C@@H]2C[C@@H]2C[C@H]2CC[C@@H](C(=O)N3CC(c4cnccc4N4CCC4)C3)N2C1=O)c1cc2cc([C@@H](F)P(=O)(O)O)ccc2s1 [Example 421, ((S)-(2-(((3S,6S,7aS,8aR,9aR)-3-(3-(4-(azetidin-1-yl)pyridin-3-yl)azetidine-1-carbonyl)-5-oxodecahydro-1H-cyclopropa[d]pyrrolo[1,2-a]azocin-6-yl)carbamoyl)benzo[b]thiophen-5-yl)fluoromethyl)phosphonic acid]
< 0.1 µM	3 to 30 µM	CO[C@@H]1CCN(c2ccncc2C2CN(C(=O)[C@@H]3CC[C@@H]4C[C@H]5C[C@H]5C[C@H](NC(=O)c5cc6cc([C@@H](F)P(=O)(O)O)ccc6s5)C(=O)N43)C2)C1 [Example 422, ((S)-fluoro(2-(((3S,6S,7aS,8aR,9aR)-3-(3-(4-((R)-3-methoxypyrrolidin-1-yl)pyridin-3-yl)azetidine-1-carbonyl)-5-oxodecahydro-1H-cyclopropa[d]pyrrolo[1,2-a]azocin-6-yl)carbamoyl)benzo[b]thiophen-5-yl)methyl)phosphonic acid]
< 0.1 µM	> 30 µM	COCC1(F)CN(c2ccncc2C2CN(C(=O)[C@@H]3CC[C@@H]4C[C@H]5C[C@H]5C[C@H](NC(=O)c5cc6cc([C@@H](F)P(=O)(O)O)ccc6s5)C(=O)N43)C2)C1 [Example 425, ((S)-fluoro(2-(((3S,6S,7aS,8aR,9aR)-3-(3-(4-(3-fluoro-3-(methoxymethyl)azetidin-1-yl)pyridin-3-yl)azetidine-1-carbonyl)-5-oxodecahydro-1H-cyclopropa[d]pyrrolo[1,2-a]azocin-6-yl)carbamoyl)benzo[b]thiophen-5-yl)methyl)phosphonic acid]
